From patent publication US20250058002A1, “ELECTROCHEMICAL INHIBITION OF REDOX ACTIVE BACTERIA AND RELATED DEVICES, METHODS AND SYSTEMS” (priority 2023, published 2025)

test system: not given; experiment: not given; settings: vs NHE at pH7; cited from earlier work

Compound	Redox potentials E (mV)
O=C1CCC(=O)N(O)CCC(O)CNC(=O)CCC(=O)N(O)CCC(O)CN1 (stereo not shown) [Alcaligin]	−588 mV
NC1=C(C(=O)O)C(=O)c2ccccc2C1=O [ACNQ ox/red, ACNQ]	−71 mV
NAD/NADH	−320 mV
O=C1c2ccc(S(=O)(=O)O)cc2C(=O)c2ccc(S(=O)(=O)O)cc21 [2,6-AQDS]	−184 mV
Menaquinone [Menaquinone ox/red]	−75 mV
O2/H2O	+820 mV
Ubiquinone [Ubiquinone ox/red]	+113 mV

test system: not listed separately; experiment: Midpoint potential E1/2 by voltammetry vs Ag/AgCl (3M KCl); type: physicochemical; settings: aqueous environment at pH7
Procedure: The purified redox-active molecule can be dissolved in aqueous solution at appropriate concentration in the presence of supporting electrolyte and buffer to select the pH of measurement. For example, the redox-active molecule can be dissolved in 10 μM-10 mM concentrations in distilled, deionized water (DDW). The supporting electrolyte can be a salt such as NaCl or KCl at 0.01-0.5 M concentrations, for example, dissolved in DDW. The buffer can be 10 mM ammonium acetate/3-(N-morpholino)propanesulfonic acid at pH 7, or phosphate-buffered saline (PBS) at pH 7.4, or sodium acetate buffer at pH 5, or di-sodium hydrogen phosphate/potassium dihydrogen phosphate at pH 9, or boric acid/citric acid/trisodium phosphate for a wide range of pH values, for example.
Voltammetric methods are then used to characterize the electrochemical behavior of the redox-active molecule in such solution, with a potentiostat such as a Gamry PC4-300, using a three-electrode setup with working electrode (glassy carbon, or platinum, or gold), counter electrode (platinum wire) and reference electrode (Ag/AgCl (3M KCl), or SCE, or NHE; values are reported relative to Ag/AgCl (3M KCl) which has potential +197 mV vs. NHE at 298K).
For example, cyclic voltammetry may be used. In a cyclic voltammetry experiment phenazines will show a peak on the cathodic sweep (denoted Epc) corresponding to the reduction of the redox molecule.
The reverse, anodic sweep will show a peak (denoted Epa) corresponding to the re-oxidation of the redox molecule. If the electrode reaction is diffusion-controlled and reversible, the cathodic and anodic peak currents will be equal in area, and the mid-point between these peaks may be taken as the formal reduction potential of the redox molecule under the experimental conditions used. This value can interchangeably be referred to as the “midpoint potential” or “mid-peak potential”, denoted E1/2.
PYO was purified from aerobic bacterial cultures and was dissolved in 0.1 M KCl aqueous solution buffered with 10 mM ammonium acetate-3-(N-morpholino)propanesulfonic acid (5 mM each, pH 7) to yield a stock solution concentration of 829 μM PYO. Electrochemical measurements were performed with a Gamry PC4-300 potentiostat. A stationary gold disk electrode (BASi) was used as the working electrode, an Ag/AgCl electrode (RE-51, BASi) as the reference, and a straight platinum wire (BASi) was the counter electrode. Scans were performed between 20 and 500 mV/s in the potential range of around E1/2 (+/−300 mV), at 298 K.
As described in en.wikipedia.org/wiki/Nernst_equation, the Nernst equation relates E1/2 measured at pH 7 to the E1/2 at a different pH by:
[formula] • where E1/2 is in V • h is the number of protons transferred in the electrochemical reaction • e is the number of electrons transferred in the electrochemical reaction

Compound	midpoint potential vs Ag/AgCl [mV]
NAD/NADH	−600

same assay, conditions: pH 5; Example 15 table

Compound	E1/2 (vs. Ag/AgCl (3M KCl))/mV [mV]
NC(=O)c1cccc2nc3ccccc3nc12 [XXV, phenazine-1-carboxamide]	−205
O=C(O)c1cccc2nc3ccccc3nc12 [Phenazine-1-carboxylate (PCA), Phenazine-1-carboxylate]	−185
Oc1cccc2nc3ccccc3nc12 [1-Hydroxyphenazine (1-OHPHZ), 1-Hydroxyphenazine]	−254

same assay, conditions: pH 6; Example 15 table

Compound	E1/2 (vs. Ag/AgCl (3M KCl))/mV [mV]
NC(=O)c1cccc2nc3ccccc3nc12 [XXV, phenazine-1-carboxamide]	−278
O=C(O)c1cccc2nc3ccccc3nc12 [Phenazine-1-carboxylate (PCA), Phenazine-1-carboxylate]	−257
Oc1cccc2nc3ccccc3nc12 [1-Hydroxyphenazine (1-OHPHZ), 1-Hydroxyphenazine]	−323

same assay, conditions: pH 7; Example 15 table

Compound	E1/2 (vs. Ag/AgCl (3M KCl))/mV [mV]
NC(=O)c1cccc2nc3ccccc3nc12 [XXV, phenazine-1-carboxamide]	−337
O=C(O)c1cccc2nc3ccccc3nc12 [Phenazine-1-carboxylate (PCA), Phenazine-1-carboxylate]	−313
Oc1cccc2nc3ccccc3nc12 [1-Hydroxyphenazine (1-OHPHZ), 1-Hydroxyphenazine]	−371

same assay, conditions: pH 8; Example 15 table

Compound	E1/2 (vs. Ag/AgCl (3M KCl))/mV [mV]
Oc1cccc2nc3ccccc3nc12 [1-Hydroxyphenazine (1-OHPHZ), 1-Hydroxyphenazine]	−442

test system: PA14; experiment: Reduction of redox-active compound by PA14 (Table 4); type: cell-based, P. aeruginosa; settings: not given
Excerpt: (§1) Phenazines and other redox active compound in the sense of the disclosure can be further characterized by various electrical properties such as a standard electrode potential E° vs. NHE of −500 mV to 500 mV and other properties such as number of redox cycle over a certain period of time (e.g. number of days) as ability to support survival and susceptibility to reduction by enzymes and/or bacterial strains.

Compound	Reduction by PA14?
O=C1c2ccc(S(=O)(=O)O)cc2C(=O)c2ccc(S(=O)(=O)O)cc21 [2,6-AQDS]	Yes (very slowly)
O=C(O)c1cccc2nc3ccccc3nc12 [Phenazine-1-carboxylate (PCA), Phenazine-1-carboxylate]	Yes
Oc1cccc2nc3ccccc3nc12 [1-Hydroxyphenazine (1-OHPHZ), 1-Hydroxyphenazine]	Yes

test system: PA14; experiment: Redox cycles over 7 days and support of survival (Table 4); type: cell-based, P. aeruginosa; settings: not given
Excerpt: as §1

Compound	Support survival?
O=C1c2ccc(S(=O)(=O)O)cc2C(=O)c2ccc(S(=O)(=O)O)cc21 [2,6-AQDS]	No
O=C(O)c1cccc2nc3ccccc3nc12 [Phenazine-1-carboxylate (PCA), Phenazine-1-carboxylate]	Yes
Oc1cccc2nc3ccccc3nc12 [1-Hydroxyphenazine (1-OHPHZ), 1-Hydroxyphenazine]	Yes

same assay, conditions: over 7 days

Compound	# of Redox cycles over 7 days
O=C1c2ccc(S(=O)(=O)O)cc2C(=O)c2ccc(S(=O)(=O)O)cc21 [2,6-AQDS]	No cycle
O=C(O)c1cccc2nc3ccccc3nc12 [Phenazine-1-carboxylate (PCA), Phenazine-1-carboxylate]	22
Oc1cccc2nc3ccccc3nc12 [1-Hydroxyphenazine (1-OHPHZ), 1-Hydroxyphenazine]	14

test system: not given; experiment: not given; settings: oxidized form; literature values (footnotes a, c, d); cited from earlier work

Compound	E0' (vs. NHE) (mV)
O=C1c2ccc(S(=O)(=O)O)cc2C(=O)c2ccc(S(=O)(=O)O)cc21 [2,6-AQDS]	−184^d mV
O=C(O)c1cccc2nc3ccccc3nc12 [Phenazine-1-carboxylate (PCA), Phenazine-1-carboxylate]	−114^a mV
Oc1cccc2nc3ccccc3nc12 [1-Hydroxyphenazine (1-OHPHZ), 1-Hydroxyphenazine]	−174^a mV

test system: not given; experiment: not given; settings: pH 5; from Wang and Newman (2008); cited from earlier work

Compound	E1/2 (vs. Ag/AgCl (3M KCl))/mV [mV]
NC(=O)c1cccc2nc3ccccc3nc12 [XXV, phenazine-1-carboxamide]	−205
O=C(O)c1cccc2nc3ccccc3nc12 [Phenazine-1-carboxylate (PCA), Phenazine-1-carboxylate]	−185
Oc1cccc2nc3ccccc3nc12 [1-Hydroxyphenazine (1-OHPHZ), 1-Hydroxyphenazine]	−254

same assay, conditions: pH 6; from Wang and Newman (2008); cited from earlier work

Compound	E1/2 (vs. Ag/AgCl (3M KCl))/mV [mV]
NC(=O)c1cccc2nc3ccccc3nc12 [XXV, phenazine-1-carboxamide]	−278
O=C(O)c1cccc2nc3ccccc3nc12 [Phenazine-1-carboxylate (PCA), Phenazine-1-carboxylate]	−257
Oc1cccc2nc3ccccc3nc12 [1-Hydroxyphenazine (1-OHPHZ), 1-Hydroxyphenazine]	−323

same assay, conditions: pH 7; from Wang and Newman (2008); cited from earlier work

Compound	E1/2 (vs. Ag/AgCl (3M KCl))/mV [mV]
NC(=O)c1cccc2nc3ccccc3nc12 [XXV, phenazine-1-carboxamide]	−337
O=C(O)c1cccc2nc3ccccc3nc12 [Phenazine-1-carboxylate (PCA), Phenazine-1-carboxylate]	−313
Oc1cccc2nc3ccccc3nc12 [1-Hydroxyphenazine (1-OHPHZ), 1-Hydroxyphenazine]	−371

same assay, conditions: pH 8; from Wang and Newman (2008); cited from earlier work

Compound	E1/2 (vs. Ag/AgCl (3M KCl))/mV [mV]
Oc1cccc2nc3ccccc3nc12 [1-Hydroxyphenazine (1-OHPHZ), 1-Hydroxyphenazine]	−442
